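In this assay, cells in 96-well plates receive the compound at five concentrations for 48 hours. Endpoints are linearly interpolated between the surrounding concentrations. Abbreviation: GI50, concentration required for 50% inhibition of growth.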 Calls of active or inactive are those of the source. No stated cut-off is given here; in the data, active = GI50 up to about 1.1 µM and inactive = higher.
Key:
Test in all cases: NCI anticancer screen, dose series, 48 h
HL-60 = test system: HL-60
TK-10 = test system: TK-10
SW-620 = test system: SW-620
NCI-H460 = test system: NCI-H460
OVCAR-4 = test system: OVCAR-4
SK-OV-3 = test system: SK-OV-3
SR = test system: SR
NCI-H23 = test system: NCI-H23
786-0 = test system: 786-0
HCC 2998 = test system: HCC 2998
KM12 = test system: KM12
M14 = test system: M14
CCRF-CEM = test system: CCRF-CEM
HT-29 = test system: HT-29
SK-MEL-28 = test system: SK-MEL-28
OVCAR-5 = test system: OVCAR-5
UO-31 = test system: UO-31
NCI-H522 = test system: NCI-H522
CAKI-1 = test system: CAKI-1

Nc1c(Cl)ncnc1NCCCCCCCCCCCCNc1ncnc(Cl)c1N
GI50 (HL-60): 0.051 µM (active)
GI50 (TK-10): 4.6 µM (inactive)
GI50 (SW-620): 2.69 µM (inactive)
GI50 (NCI-H460): 1.9 µM (inactive)
GI50 (OVCAR-4): 1.99 µM (inactive)
GI50 (SK-OV-3): 4.18 µM (inactive)
GI50 (SR): 0.147 µM (active)
GI50 (NCI-H23): < 0.01 µM (active)
GI50 (786-0): 2.86 µM (inactive)
GI50 (HCC 2998): 3.72 µM (inactive)
GI50 (KM12): 3.12 µM (inactive)
GI50 (M14): 3.19 µM (inactive)
GI50 (CCRF-CEM): 0.162 µM (active)
GI50 (HT-29): 7.03 µM (inactive)
GI50 (SK-MEL-28): 2.14 µM (inactive)
GI50 (OVCAR-5): < 0.01 µM (active)
GI50 (UO-31): 1.05 µM (active)

CCN(CC)CCNC(=O)c1ccccc1Nc1c(Cl)cccc1Cl
GI50 (HL-60): 7.41 µM (inactive)
GI50 (TK-10): 12.1 µM (inactive)
GI50 (SW-620): 15.3 µM (inactive)
GI50 (NCI-H460): 4.39 µM (inactive)
GI50 (OVCAR-4): 14.8 µM (inactive)
GI50 (SK-OV-3): 16.7 µM (inactive)
GI50 (SR): 13 µM (inactive)
GI50 (NCI-H23): 18.2 µM (inactive)
GI50 (786-0): 6.34 µM (inactive)
GI50 (HCC 2998): 6.82 µM (inactive)
GI50 (M14): 18.1 µM (inactive)
GI50 (CCRF-CEM): 14.1 µM (inactive)
GI50 (HT-29): 6.15 µM (inactive)
GI50 (SK-MEL-28): 18.3 µM (inactive)
GI50 (OVCAR-5): 7.55 µM (inactive)
GI50 (UO-31): 9.95 µM (inactive)

C/C(=N\NC(=S)N1CCN(c2ccccn2)CC1)c1ccccn1
GI50 (TK-10): 0.871 µM (active)
GI50 (SW-620): 0.017 µM (active)
GI50 (NCI-H522): 0.0818 µM (active)
GI50 (NCI-H460): 0.252 µM (active)
GI50 (OVCAR-4): 0.331 µM (active)
GI50 (CAKI-1): 0.0467 µM (active)
GI50 (SK-OV-3): 0.0593 µM (active)
GI50 (SR): 0.0522 µM (active)
GI50 (NCI-H23): 0.022 µM (active)
GI50 (786-0): 0.074 µM (active)
GI50 (HCC 2998): 0.931 µM (active)
GI50 (KM12): 0.129 µM (active)
GI50 (M14): 0.0431 µM (active)
GI50 (CCRF-CEM): 0.00337 µM (active)
GI50 (HT-29): 0.0745 µM (active)
GI50 (SK-MEL-28): 0.208 µM (active)
GI50 (OVCAR-5): 0.0474 µM (active)
GI50 (UO-31): 0.998 µM (active)

CCC1(CN(C)C)CC/C(=C\c2ccc(OC)c(OC)c2)C1=O (centres undefined)
GI50 (TK-10): > 100 µM (inactive)
GI50 (SW-620): > 100 µM (inactive)
GI50 (NCI-H522): 64.1 µM (inactive)
GI50 (NCI-H460): > 100 µM (inactive)
GI50 (OVCAR-4): > 100 µM (inactive)
GI50 (CAKI-1): 74.5 µM (inactive)
GI50 (SK-OV-3): > 100 µM (inactive)
GI50 (SR): < 0.01 µM (active)
GI50 (NCI-H23): > 100 µM (inactive)
GI50 (786-0): > 100 µM (inactive)
GI50 (HCC 2998): > 100 µM (inactive)
GI50 (KM12): > 100 µM (inactive)
GI50 (M14): > 100 µM (inactive)
GI50 (CCRF-CEM): > 68.9 µM (inactive)
GI50 (HT-29): 58.2 µM (inactive)
GI50 (SK-MEL-28): > 100 µM (inactive)
GI50 (OVCAR-5): > 69.5 µM (inactive)
GI50 (UO-31): > 100 µM (inactive)

CC(=O)OCC12C(OC(C)=O)C(=O)C3C(OC(C)=O)C14OC3(C)COC(=O)c1cccnc1C(C)C(C)C(=O)OC(C(OC(C)=O)C2OC(C)=O)C4(C)O (centres undefined)
GI50 (HL-60): > 100 µM (inactive)
GI50 (TK-10): > 100 µM (inactive)
GI50 (SW-620): > 100 µM (inactive)
GI50 (NCI-H522): > 100 µM (inactive)
GI50 (NCI-H460): > 100 µM (inactive)
GI50 (OVCAR-4): > 100 µM (inactive)
GI50 (CAKI-1): > 100 µM (inactive)
GI50 (SK-OV-3): > 100 µM (inactive)
GI50 (SR): 42.6 µM (inactive)
GI50 (NCI-H23): > 100 µM (inactive)
GI50 (786-0): > 100 µM (inactive)
GI50 (HCC 2998): > 100 µM (inactive)
GI50 (KM12): > 100 µM (inactive)
GI50 (M14): > 100 µM (inactive)
GI50 (CCRF-CEM): > 100 µM (inactive)
GI50 (HT-29): > 100 µM (inactive)
GI50 (SK-MEL-28): > 100 µM (inactive)
GI50 (OVCAR-5): > 100 µM (inactive)
GI50 (UO-31): > 100 µM (inactive)

C=Cc1ccc(C)[n+](C[Si](C)(C)O[Si](C)(C)C[n+]2cc(C=C)ccc2C)c1
GI50 (HL-60): > 100 µM (inactive)
GI50 (TK-10): > 100 µM (inactive)
GI50 (SW-620): > 100 µM (inactive)
GI50 (NCI-H522): > 100 µM (inactive)
GI50 (NCI-H460): > 100 µM (inactive)
GI50 (OVCAR-4): > 100 µM (inactive)
GI50 (CAKI-1): > 100 µM (inactive)
GI50 (SK-OV-3): > 100 µM (inactive)
GI50 (SR): > 100 µM (inactive)
GI50 (NCI-H23): > 100 µM (inactive)
GI50 (786-0): > 100 µM (inactive)
GI50 (HCC 2998): > 100 µM (inactive)
GI50 (KM12): > 100 µM (inactive)
GI50 (M14): > 100 µM (inactive)
GI50 (CCRF-CEM): > 100 µM (inactive)
GI50 (HT-29): > 100 µM (inactive)
GI50 (SK-MEL-28): > 100 µM (inactive)
GI50 (OVCAR-5): > 100 µM (inactive)
GI50 (UO-31): > 100 µM (inactive)

COc1cc2c(c(OC)c1OC)-c1ccc(SC)c(=O)cc1[C@@H](NC(=O)c1ccc([N+](=O)[O-])cc1)CC2
GI50 (HL-60): < 0.0025 µM (active)
GI50 (TK-10): 3.13 µM (inactive)
GI50 (SW-620): < 0.0025 µM (active)
GI50 (NCI-H460): 0.00327 µM (active)
GI50 (OVCAR-4): 0.123 µM (active)
GI50 (SK-OV-3): < 0.0025 µM (active)
GI50 (SR): 0.00522 µM (active)
GI50 (NCI-H23): < 0.01 µM (active)
GI50 (786-0): 0.00528 µM (active)
GI50 (HCC 2998): 0.00588 µM (active)
GI50 (KM12): < 0.0025 µM (active)
GI50 (M14): < 0.0025 µM (active)
GI50 (CCRF-CEM): < 0.0025 µM (active)
GI50 (HT-29): 0.1 µM (active)
GI50 (SK-MEL-28): 4.45 µM (inactive)
GI50 (OVCAR-5): 0.00485 µM (active)
GI50 (UO-31): 0.00579 µM (active)

Reference: ChEMBL document CHEMBL1201862, “PubChem BioAssay data set” (2004)
